Inhibition data for 18 compounds are collected here from patent publication US20140221340A1 (KYOWA HAKKO KIRIN CO., LTD., priority 2011, published 2014).

The target in the experiment is T1, human CCR10 (Homo sapiens, UniProt P46092).
T1 construct: expressed in transfected cells; host or cells: KJMGER8 cell (cell line derived from Namalwa cell); expression induced with 10 nmol/L β-estradiol
T1 sequence (P46092 1-362): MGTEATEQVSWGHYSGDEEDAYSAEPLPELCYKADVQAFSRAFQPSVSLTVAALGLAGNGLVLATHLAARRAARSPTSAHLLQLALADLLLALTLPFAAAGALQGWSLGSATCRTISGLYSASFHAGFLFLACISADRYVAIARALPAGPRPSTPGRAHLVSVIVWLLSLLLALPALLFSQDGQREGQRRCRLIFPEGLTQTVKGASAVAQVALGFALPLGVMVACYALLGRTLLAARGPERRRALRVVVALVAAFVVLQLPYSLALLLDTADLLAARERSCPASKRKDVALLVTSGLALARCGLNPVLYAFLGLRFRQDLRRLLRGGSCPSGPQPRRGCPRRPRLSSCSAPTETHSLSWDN
Nature of the experiment: Calcium assay of human CCR10 (inhibition of CTACK-induced increase in intracellular calcium ion concentration in hCCR10G16 cells). In kind it is cell-based. The conditions noted are these: test compound 100 nmol/L; human recombinant CTACK; hCCR10G16 cells (KJMGER8/Namalwa-derived, Gα16 co-expressed); FLIPR or FDSS; read-out: Inhibitory rate (%) for an increase in calcium ion concentration. The protocol:
A CCR10-inducible expression plasmid was produced according to a known method (“Analytical Biochemistry”, 2006, vol. 400, page 163). A DNA encoding human CCR10 was obtained by PCR. Using human chromosomal DNA (100 ng; manufactured by Clontech Laboratories, Inc.) as a template, a synthetic DNA having the sequences shown by SEQ ID NOs: 1 and 2 as a human CCR10 cDNA specific primer, and Pyrobest DNA Polymerase (manufactured by TAKARA SHUZO CO. LTD.) as an enzyme, a DNA encoding human CCR10 was obtained by PCR. As a buffer solution for PCR, the buffer solution attached to the enzyme was diluted 10-fold with deionized water and used. Using Thermal Cycler DNA Engine (manufactured by MJ Research), PCR was performed by 35 cycles of reactions composed of an incubation at 90° C. for 2 min, at 94° C. for 30 seconds, at an anneal temperature of 58° C. for 30 seconds, and at 72° C. for 1 min.
The amplified PCR fragment was cleaved with HindIII and NotI, then a human CCR10 DNA fragment was recovered by an agarose gel electrophoresis method. The fragment was incorporated in between the corresponding restriction enzyme sites (HindIII-NotI) of an inducible expression vector, whereby a human CCR10-inducible expression plasmid were prepared.
Using a primer specific to the sequence of the plasmid (synthetic DNA having the sequences shown by SEQ ID NOs: 3 and 4), the sequence of human CCR10 DNA region was determined. For the determination of the base sequence, DNA sequencer 377 (manufactured by PerkinElmer) and a reaction kit (ABI Prism (registered trade mark) BigDye (registered trade mark) Terminator Cycle Sequencing Ready Reaction kit: manufactured by Applied Biosystems) were used. The sequence of human CCR10 DNA matched with the sequence (NM_016602) registered in GenBank.
Cells for the detection of the signal from human CCR10 by a calcium assay were prepared. Human CCR10-inducible expressing cells whose host cell is KJMGER8 cell (cell line derived from Namalwa cell) were prepared according to a known method (“Analy Biochem”, 2006, vol. 400, page 163). Human CCR10-inducible expression plasmid produced above and Gα16 expression plasmid were co-transfected into KJMGER8 cell by an electroporation method (“Cytotechnology”, 1990, vol. 3, page 133), whereby a signal from human CCR10 could be detected by a calcium assay (hereinafter to be referred to as hCCR10G16 cell). Gα16 expression plasmid was produced by incorporating human Gα16 DNA into expression vector pAMoh (WO03/087366). Induced expression of human CCR10 was performed by cultivating hCCR10G16 cells in the presence of 10 nmol/L β-estradiol (manufactured by Sigma Ltd.) for 24 hr.
Cells expressing human CCR10 induced by the above-mentioned method were suspended in RPMI1640 medium and adjusted to cell density of 1.25×10^6 cells/mL. This mixture was dispensed to a 384 well clear bottom plate (manufactured by Corning Incorporated) at 20 μL/well, and these were incubated at 37° C. for several dozen minutes. A loading buffer prepared according to the protocol attached to FLIPR Calcium 3 assay kit (manufactured by Molecular Device) was dispensed to this plate at 20 μL/well, and the plate was incubated at 37° C. for 60 min. A 33 μmol/L DMSO solution of the test compound was diluted 37-fold with RPMI1640 medium and the resulting solution was added at 5 μL/well, and the mixture was incubated at 37° C. for 30 min. 300 nmol/L human recombinant CTACK (manufactured by R and D Systems) diluted with RPMI1640 medium containing 1 w/v % bovine serum albumin was added at 5 μL/well. Change of the intracellular calcium ion concentration for about 5 min after the addition was measured by FLIPR (manufactured by Molecular Device) or FDSS (manufactured by Hamamatsu Photonics K.K.). The difference between the maximum fluorescence intensity and the minimum fluorescence intensity for 5 min was calculated, and taken as the measurement value (maximum fluorescence intensity−minimum fluorescence intensity). […]
In the case of `CCNC(=O)NS(=O)(=O)c1cnn2c(Nc3ccc(Cl)cc3Cl)c(C(=O)N3CCC(c4ccc(F)cc4)CC3)cnc12` [a-20, 7-(2,4-Dichlorophenylamino)-N-(ethylcarbamoyl)-6-[4-(4-fluorophenyl)piperidine-1-carbonyl]pyrazolo[1,5-a]pyrimidine-3-sulfonamide], the inhibition at 0.1 µM was determined as 90.7%.
For `O=C(NC1CC1)NS(=O)(=O)c1cnn2c(Nc3ccc(F)cc3Cl)c(C(=O)N3CCC(c4ccc(F)cc4)CC3)cnc12` [a-21, 7-(2-Chloro-4-fluorophenylamino)-N-(cyclopropylcarbamoyl)-6-[4-(4-fluorophenyl)piperidine-1-carbonyl]pyrazolo[1,5-a]pyrimidine-3-sulfonamide], the inhibition at 0.1 µM was above 100%.
`CCC(=O)NS(=O)(=O)c1cnn2c(Nc3cc(Cl)ccc3Cl)c(C(=O)N3CCC(c4ccc(F)cc4)CC3)cnc12` [a-22, N-{7-(2,5-Dichlorophenylamino)-6-[4-(4-fluorophenyl)piperidine-1-carbonyl]pyrazolo[1,5-a]pyrimidin-3-ylsulfonyl}propionamide]: the inhibition at 0.1 µM was above 100%.
With `CCNC(=O)NS(=O)(=O)c1cnn2c(Nc3cc(Cl)ccc3Cl)c(C(=O)N3CCC(c4ccc(F)cc4)CC3)cnc12` [a-23, 7-(2,5-Dichlorophenylamino)-N-(ethylcarbamoyl)-6-[4-(4-fluorophenyl)piperidine-1-carbonyl]pyrazolo[1,5-a]pyrimidine-3-sulfonamide], the inhibition at 0.1 µM was determined as 96.7%.
In the case of `CC(=O)NS(=O)(=O)c1cnn2c(Nc3cc(Cl)ccc3Cl)c(C(=O)N3CCC(c4ccc(F)cc4)CC3)cnc12` [a-24, N-{7-(2,5-Dichlorophenylamino)-6-[4-(4-fluorophenyl)piperidine-1-carbonyl]pyrazolo[1,5-a]pyrimidin-3-ylsulfonyl}acetamide], the inhibition at 0.1 µM is above 100%.
Consider `CC1(C(=O)NS(=O)(=O)c2cnn3c(Nc4cc(Cl)ccc4Cl)c(C(=O)N4CCC(c5ccc(F)cc5)CC4)cnc23)COC1` [a-25, N-{7-(2,5-Dichlorophenylamino)-6-[4-(4-fluorophenyl)piperidine-1-carbonyl]pyrazolo[1,5-a]pyrimidin-3-ylsulfonyl}-3-methyloxetane-3-carboxamide], for which the inhibition at 0.1 µM is above 100%.
For the compound `O=CNS(=O)(=O)c1cnn2c(Nc3cc(Cl)ccc3Cl)c(C(=O)N3CCC(c4ccc(F)cc4)CC3)cnc12` [a-26, N-{7-(2,5-Dichlorophenylamino)-6-[4-(4-fluorophenyl)piperidine-1-carbonyl]pyrazolo[1,5-a]pyrimidin-3-ylsulfonyl}formamide], the inhibition at 0.1 µM is above 100%.
Consider `CONS(=O)(=O)c1cnn2c(Nc3cc(Cl)ccc3Cl)c(C(=O)N3CCC(c4ccc(F)cc4)CC3)cnc12` [a-27, 7-(2,5-Dichlorophenylamino)-6-[4-(4-fluorophenyl)piperidine-1-carbonyl]-N-methoxypyrazolo[1,5-a]pyrimidine-3-sulfonamide], for which the inhibition at 0.1 µM was above 100%.
For the compound `CCONS(=O)(=O)c1cnn2c(Nc3cc(Cl)ccc3Cl)c(C(=O)N3CCC(c4ccc(F)cc4)CC3)cnc12` [a-28, 7-(2,5-Dichlorophenylamino)-N-ethoxy-6-[4-(4-fluorophenyl)piperidine-1-carbonyl]-pyrazolo[1,5-a]pyrimidine-3-sulfonamide], the inhibition at 0.1 µM was above 100%.
On to `CCC(=O)NS(=O)(=O)c1cnn2c(Nc3cc(C(F)(F)F)ccc3Cl)c(C(=O)N3CCC(c4ccc(F)cc4)CC3)cnc12` [a-29, N-{7-(2-Chloro-5-trifluoromethylphenylamino)-6-[4-(4-fluorophenyl)piperidine-1-carbonyl]pyrazolo[1,5-a]pyrimidin-3-ylsulfonyl}propionamide], for which the inhibition at 0.1 µM was above 100%.
The same measure for `CCNC(=O)NS(=O)(=O)c1cnn2c(Nc3cc(F)ccc3Cl)c(C(=O)N3CCC(c4ccc(F)cc4)CC3)cnc12` [a-30, 7-(2-Chloro-5-fluorophenylamino)-N-(ethylcarbamoyl)-6-[4-(4-fluorophenyl)piperidine-1-carbonyl]pyrazolo[1,5-a]pyrimidine-3-sulfonamide]: above 100%; for `CCC(=O)NS(=O)(=O)c1cnn2c(Nc3cc(C)ccc3F)c(C(=O)N3CCC(c4ccc(F)cc4)CC3)cnc12` [a-31, N-{7-(2-Fluoro-5-methylphenylamino)-6-[4-(4-fluorophenyl)piperidine-1-carbonyl]pyrazolo[1,5-a]pyrimidin-3-ylsulfonyl}propionamide]: above 100%.
As for `Cc1ccc(F)c(Nc2c(C(=O)N3CCC(c4ccc(F)cc4)CC3)cnc3c(S(=O)(=O)NC(=O)NC4CC4)cnn23)c1` [a-32, 7-(2-Fluoro-5-methylphenylamino)-N-(cyclopropylcarbamoyl)-6-[4-(4-fluorophenyl)piperidine-1-carbonyl]pyrazolo[1,5-a]pyrimidine-3-sulfonamide], the inhibition at 0.1 µM is above 100%.
For `CC(=O)NS(=O)(=O)c1cnn2c(Nc3cc(Cl)ccc3F)c(C(=O)N3CCC(c4ccc(F)cc4)CC3)cnc12` [a-33, N-{7-(5-Chloro-2-fluorophenylamino)-6-[4-(4-fluorophenyl)piperidine-1-carbonyl]pyrazolo[1,5-a]pyrimidin-3-ylsulfonyl}acetamide], the inhibition at 0.1 µM is above 100%.
As to `CCNC(=O)NS(=O)(=O)c1cnn2c(Nc3cc(Cl)ccc3F)c(C(=O)N3CCC(c4ccc(F)cc4)CC3)cnc12` [a-34, 7-(5-Chloro-2-fluorophenylamino)-N-(ethylcarbamoyl)-6-[4-(4-fluorophenyl)piperidine-1-carbonyl]pyrazolo[1,5-a]pyrimidine-3-sulfonamide], the inhibition at 0.1 µM is above 100%.
Take `CC(=O)NS(=O)(=O)c1cnn2c(Nc3cc(F)ccc3F)c(C(=O)N3CCC(c4ccc(F)cc4)CC3)cnc12` [a-35, N-{7-(2,5-Difluorophenylamino)-6-[4-(4-fluorophenyl)piperidine-1-carbonyl]pyrazolo[1,5-a]pyrimidin-3-ylsulfonyl}acetamide]: the inhibition at 0.1 µM was above 100%.
In the case of `CCC(=O)NS(=O)(=O)c1cnn2c(Nc3cc(F)ccc3F)c(C(=O)N3CCC(c4ccc(F)cc4)CC3)cnc12` [a-36, N-{7-(2,5-Difluorophenylamino)-6-[4-(4-fluorophenyl)piperidine-1-carbonyl]pyrazolo[1,5-a]pyrimidin-3-ylsulfonyl}propionamide], the inhibition at 0.1 µM is above 100%.
For `Cc1ccc(Cl)c(Nc2c(C(=O)N3CCC(c4ccc(F)cc4)CC3)cnc3c(S(=O)(=O)NC(=O)NC4CC4(F)F)cnn23)c1` (stereo not drawn) [a-37, 7-(2-Chloro-5-methylphenylamino)-N-(2,2-difluorocyclopropylcarbamoyl)-6-[4-(4-fluorophenyl)piperidine-1-carbonyl]pyrazolo[1,5-a]pyrimidine-3-sulfonamide], the inhibition at 0.1 µM was above 100%.
